# From patent US20060069132A1, “Azolecarboxamide herbicides” (priority 2004, published 2006)
# Tests used:
# Test in all cases: Test E pre-/postemergence herbicide test
# [1] = system: barnyardgrass; type: in vivo, Echinochloa crus-galli
# Summary of the method: (§1)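 Visual 0–100 rating vs untreated controls (0 = no effect, 100 = complete control), 12–14 d after treatment in greenhouse. Pre- and postemergence (2–18 cm, 1- to 4-leaf) applications; compounds in non-phytotoxic solvent with surfactant.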
# [2] = system: common purslane; type: in vivo, Portulaca oleracea; conditions: Preemergence, scale 0 (no effect) to 100 (complete control)
# Text: (§2) Seeds of plant species selected from bipinnate beggarticks (Bidens bipinnata L.), hairy beggarticks (Bidens radiata Thuill.), bermudagrass (Cynodon dactylon (L.) Pers.), Surinam grass (Urochloa decumbens (Staph) R. D. Webster, previously named Brachiaria decumbens Stapf), large crabgrass (Digitaria sanguinalis (L.) Scop.), green foxtail (Setaria viridis (L.) P. Beauv.), goosegrass (Eleusine indica (L.) Gaertn.), johnsongrass (Sorghum halepense (L.) Pers.), kochia (Kochia scoparia (L.) Schrad.), pitted morningglory (Ipomoea lacunosa L.), purple nutsedge (Cyperus rotundus L.), common ragweed (Ambrosia elatior L.), mustard (Brassica nigra (L.) W. D. J. Koch), guineagrass (Panicum maximum Jacq.), dallisgrass (Paspalum dilatatum Poir.), barnyardgrass (Echinochloa crus-galli (L). P. Beauv.), southern sandbur (Cenchrus echinatus L.), common sowthistle (Sonchus oleraceous L.), prickly sida (Sida spinosa L.), Italian ryegrass (Lolium multiflorum Lam.), common purslane (Portulaca oleracea L.), broadleaf signalgrass (Brachiaria platyphylla (Griseb.) Nash), common groundsel (Senecio vulgaris L.), common chickweed (Stellaria media (L.) Vill/Cyr.), tropical spiderwort (Commelina benghalensis L.), annual bluegrass (Poa annua L.), downy bromegrass (Bromus tectorum L.), itchgrass (Rottboellia cochinchinensis (L.) L.f.), quackgrass (Elytrigia repens (L.) Nevski), Canada horseweed (Erigeron Canadensis L.), field bindweed (Convolvulus arvensis L.), spotted spurge (Euphorbia maculata L.), common mallow (Malva sylvestris (=s silvestris) L.), and Russian thistle (Salsola kali L. ssp. Ruthenica (Iljin) Soo) were planted and treated preemergence with test chemicals formulated in a non-phytotoxic solvent mixture which included a surfactant.
# (§3) At the same time, plants selected from these weed species were treated with postemergence applications of some of the test chemicals formulated in the same manner. Plants ranged in height from 2 to 18 cm (1- to 4-leaf stage) for postemergence treatments. Treated plants and controls were maintained in a greenhouse for 12 to 14 days, after which time all species were compared to controls and visually evaluated. Plant response ratings, summarized in Table E, are based on a scale of 0 to 100 where 0 is no effect and 100 is complete control. A dash (-) response means no test result.
# [3] = system: common groundsel; type: in vivo, Senecio vulgaris
# Text: as §2, §3
# [4] = system: tropical spiderwort; type: in vivo, Commelina benghalensis
# Summary of the method: as §1
# [5] = system: downy bromegrass; type: in vivo, Bromus tectorum
# Summary of the method: as §1
# [6] = system: itchgrass; type: in vivo, Rottboellia cochinchinensis
# Summary of the method: as §1
# [7] = system: quackgrass; type: in vivo, Elytrigia repens
# Summary of the method: as §1
# [8] = system: field bindweed; type: in vivo, Convolvulus arvensis
# Summary of the method: as §1
# [9] = system: Russian thistle; type: in vivo, Salsola kali; conditions: Preemergence
# Text: as §2, §3
# [10] = Postemergence, 250 g ai/ha, scale 0 to 100
# [11] = Preemergence, 62 g ai/ha, scale 0 to 100
# [12] = Preemergence, 125 g ai/ha, scale 0 (no effect) to 100 (complete control)
# [13] = Preemergence, 250 g ai/ha, scale 0 (no effect) to 100 (complete control)
# [14] = Preemergence, 500 g ai/ha, scale 0 (no effect) to 100 (complete control)
# [15] = postemergence, 125 g ai/ha, scale 0 to 100
# [16] = postemergence, 62 g ai/ha, scale 0 to 100
# [17] = 500 g ai/ha, scale 0 (no effect) to 100 (complete control)
# [18] = Preemergence, 125 g ai/ha, scale 0 to 100
smiles,measurement,setting,value
"CCNC(=O)c1ccc(F)c(NC(=O)c2cc(C(C)(C)C)nn2CC)c1 [Compound 2, 3-(1,1-dimethylethyl)-1-ethyl-N-[5-[(ethylamino)carbonyl]-2-fluorophenyl]-1H-pyrazole-5-carboxamide]","Plant response rating, Barnyardgrass",[1]; [10],95
same,"Plant response rating, Barnyardgrass",[1]; [11],60
same,"Plant response rating, Barnyardgrass",[1]; [12],80
same,"Plant response rating, Barnyardgrass",[1]; [13],100
same,"Plant response rating, Barnyardgrass",[1]; [14],100
same,"Plant response rating, Barnyardgrass",[1]; [15],90
same,"Plant response rating, Barnyardgrass",[1]; [16],80
same,"Plant response rating, Purslane",[2]; 125 g ai/ha,100
same,"Plant response rating, Purslane",[2]; 250 g ai/ha,100
same,"Plant response rating, Purslane",[2]; 500 g ai/ha,100
same,"Plant response rating, Groundsel",[3]; [10],80
same,"Plant response rating, Groundsel",[3]; [11],60
same,"Plant response rating, Groundsel",[3]; [12],70
same,"Plant response rating, Groundsel",[3]; [13],100
same,"Plant response rating, Groundsel",[3]; [14],100
same,"Plant response rating, Spiderwort",[4]; [10],70
same,"Plant response rating, Spiderwort",[4]; [11],20
same,"Plant response rating, Spiderwort",[4]; [12],60
same,"Plant response rating, Spiderwort",[4]; [13],70
same,"Plant response rating, Spiderwort",[4]; [14],100
same,"Plant response rating, Spiderwort",[4]; [16],20
same,"Plant response rating, Bromegrass, Downy",[5]; [10],98
same,"Plant response rating, Bromegrass, Downy",[5]; [11],50
same,"Plant response rating, Bromegrass, Downy",[5]; [12],90
same,"Plant response rating, Bromegrass, Downy",[5]; [13],90
same,"Plant response rating, Bromegrass, Downy",[5]; [14],90
same,"Plant response rating, Bromegrass, Downy",[5]; [15],75
same,"Plant response rating, Bromegrass, Downy",[5]; [16],65
same,"Plant response rating, Itchgrass",[6]; [10],90
same,"Plant response rating, Itchgrass",[6]; [11],60
same,"Plant response rating, Itchgrass",[6]; [12],70
same,"Plant response rating, Itchgrass",[6]; [13],90
same,"Plant response rating, Itchgrass",[6]; [14],95
same,"Plant response rating, Itchgrass",[6]; [15],90
same,"Plant response rating, Itchgrass",[6]; [16],70
same,"Plant response rating, Quackgrass",[7]; [10],95
same,"Plant response rating, Quackgrass",[7]; [11],30
same,"Plant response rating, Quackgrass",[7]; [12],60
same,"Plant response rating, Quackgrass",[7]; [13],70
same,"Plant response rating, Quackgrass",[7]; [14],80
same,"Plant response rating, Quackgrass",[7]; [15],90
same,"Plant response rating, Quackgrass",[7]; [16],70
same,"Plant response rating, Bindweed, Field",[8]; [10],70
same,"Plant response rating, Bindweed, Field",[8]; [11],10
same,"Plant response rating, Bindweed, Field",[8]; [13],70
same,"Plant response rating, Bindweed, Field",[8]; [14],80
same,"Plant response rating, Bindweed, Field",[8]; [15],70
same,"Plant response rating, Bindweed, Field",[8]; [16],50
same,"Plant response rating, Thistle","[9]; 62 g ai/ha, scale 0 to 100",50
same,"Plant response rating, Thistle","[9]; 125 g ai/ha, scale 0 to 100",60
same,"Plant response rating, Thistle","[9]; 250 g ai/ha, scale 0 (no effect) to 100 (complete control)",60
same,"Plant response rating, Thistle",[9]; [17],80
CCc1nn(C(C)(C)C)nc1C(=O)Nc1cccc(C(=S)N(C)C)c1 [Compound 395],"Plant response rating, Barnyardgrass",[1]; [11],50
same,"Plant response rating, Barnyardgrass",[1]; [18],60
same,"Plant response rating, Barnyardgrass",[1]; [13],95
same,"Plant response rating, Barnyardgrass",[1]; [14],95
same,"Plant response rating, Spiderwort",[4]; [13],60
same,"Plant response rating, Spiderwort",[4]; [14],90
same,"Plant response rating, Bromegrass, Downy",[5]; [11],40
same,"Plant response rating, Bromegrass, Downy",[5]; [18],40
same,"Plant response rating, Bromegrass, Downy",[5]; [13],95
same,"Plant response rating, Bromegrass, Downy",[5]; [14],95
same,"Plant response rating, Itchgrass",[6]; [11],20
same,"Plant response rating, Itchgrass",[6]; [18],60
same,"Plant response rating, Itchgrass",[6]; [13],60
same,"Plant response rating, Itchgrass",[6]; [14],80
same,"Plant response rating, Quackgrass",[7]; [11],60
same,"Plant response rating, Quackgrass",[7]; [18],80
same,"Plant response rating, Quackgrass",[7]; [13],85
same,"Plant response rating, Quackgrass",[7]; [14],90
same,"Plant response rating, Bindweed, Field",[8]; [11],10
same,"Plant response rating, Bindweed, Field",[8]; [18],40
same,"Plant response rating, Bindweed, Field",[8]; [13],60
same,"Plant response rating, Bindweed, Field",[8]; [14],70
same,"Plant response rating, Thistle",[9]; [17],60
